Tests used:
[1] = Stability in mouse liver microsomes; assay type: in vitro ADME
Method: (§1) Half-life Human Microsomes: Compounds were evaluated for stability in human liver microsomes. A 10 mM stock solution of the compound being evaluated was prepared in DMSO and diluted with water:acetonitrile (1:1) to a concentration of 1 mM. A working concentration of 100 μM was prepared by further dilution with water:acetonitrile (1:1). To make the preincubation mixture, 2.5 μL of the diluted compound was combined with 75 μL of human liver microsomes at 3.33 mg/mL, and 85 μL of 100 mM potassium phosphate buffer, and this mixture was pre-incubated for 10 min at 37° C. To make the 60 minute mixture without cofactor, 32.5 μL of the preincubation mixture was combined with 17.5 μL of 100 mM potassium phosphate buffer and incubated for 60 min at 37° C. To make the 0 min sample with cofactor (NADPH), 16.25 μL of the preincubation mixture was combined with 200 μL of acetonitrile containing internal standard and 8.75 μL of cofactor (NADPH). To make the incubation mixture, 62 μL of cofactor (2.85 mM) was combined with the remaining incubation mixture, and incubated for 60 min at 37° C. To prepare the sample mixture to be evaluated, 25 μL incubation mixture was combined with 200 μL of acetonitrile containing internal standard and vortexed for 5 min at 1200 rpm, then centrifuged for 10 min at 4000 rpm. The supernatant was diluted 2 fold with water and injected on LC-MS/MS. The sample mixture was evaluated by LC-MS/MS using 10 mM ammonium acetate with 0.1% FA as the aqueous mobile phase, and methanol as the organic mobile phase.
Half-life Mouse Microsomes: Compounds were evaluated in mouse liver microsomes following a similar procedure as described above for human liver microsomes. A similar procedure could be used to evaluate compounds in rat liver microsomes.

[2] = Stability in human liver microsomes; assay type: in vitro ADME; conditions: 60 min at 37° C., NADPH
Method: as §1

ACACA = assay: Gene expression in HepG2 cells (qPCR), ACACA; assay type: cell-based; conditions: for 48 hours, normalized to β-Actin, relative to mock or vehicle treated cells (ΔΔCT)
Method: Gene Expression: The effect of selected compounds on the gene expression of HepG2 cells was evaluated. HepG2 cells (P2) were seeded in 24 well plate (80,000 cells/well) for RNA extraction and in a 96 well plate (10,000 cells/well) for Cell Titer Glow (CTG). The media used was DMEM and contained 10% FBS. Each compound was evaluated at […] for 48 hours. Two biological replicates per experimental group were evaluated for RNA. For gene analysis, RNA was harvested with RNEasy kit and 20-100 ng used to synthesize cDNA with random primers. Quantitative PCR was performed on 1 pg to 100 ng cDNA for the following genes: ACACA, ACLY, FASN, LSS, PNPLA3. Gene expression levels were normalized with housekeeping gene, β-Actin, and relative expression levels determined using ΔΔCT method comparing treated to mock or vehicle treated cells as a baseline. “Total” gene expression refers to the average of the values of the 5 genes listed above.

SREBP = assay: Reporter Screening Assay (SRE-luciferase reporter, HepG2); assay type: cell-based; conditions: Homo sapiens, SREBPv1 Reporter cell line HepG2, 24 hours, 0.01 uM to 10 uM, read-out: I: Reporter Screening Assay (Ave EC50 (nM))
Method: Reporter Screening Assay: This assay was used to evaluate the effect on transcriptional activity SREBP of selected compounds using an SRE-luciferase reporter construct. On day 1, 10,000 cells were seeded in a 96 well (white) plate as per the plate map in Growth media without antibiotics. Cells were incubated at 37° C. for 8 hours. After 8 hours, cells were washed with DPBS for complete removal of FBS. DPBS was completely removed and Growth media was replaced with phenol free treatment medium (90 μl) with different FBS concentrations. The cells were then incubated at 37° C. for 24 hours with varying doses (0.01 uM to 10 uM) of compounds. Then a Luciferase assay was performed.
Reagents for performing Luciferase assay were stored at −20° C. To a tube of lyophilized assay substrate was added 1 mL Substrate Solvent and mixed well. The Substrate tube after reconstitution was covered with aluminum foil so as to keep it protected from light. The assay buffer was thawed to room temperature. To 20 mL Assay Buffer was added 200 µL of reconstituted 100× Substrate and mixed well. The reconstituted substrate as well as the assay solution (buffer + substrate) was protected from light throughout the procedure by keeping it covered with aluminum foil. Using a multi-channel pipette, 100 μL Assay Solution (buffer + substrate) was added directly to each sample well in Plate 1, which was incubated for 30 min (plate was covered with aluminum foil). After 30 min incubation, the plate was read for total luminescence. Each well was read for 2 seconds in a plate luminometer. (Microplate reader Envision Microplate reader from Perkin Elmer). Precaution was taken to incubate plate exactly for 30 min prior to reading on the plate reader.
Reporter Assay Materials: SREBPv1 Reporter cell line: HepG2-#32251. Growth Medium: MEM (Corning 10-010), 10% FBS, 1% GlutaMax (Invitrogen Catalog #35050061), […] (Invitrogen Catalog #A1113803) and 1% Penicillin-Streptomycin (Pen-Strep). Treatment Media: Phenol-free MEM (Invitrogen Catalog #51200-038) and 1% GlutaMax (Invitrogen Catalog #35050061). Luciferase Assay: LightSwitch Luciferase Assay Kit (Catalog #32032). LDH assay: Pierce LDH Cytotoxicity Assay Kit (Catalog #SD249616).

O=C(c1ccc(-c2cc(-c3ccnc4c3OCCO4)cs2)c(Cl)c1)N1CCC(O)CC1 [Compound I-1629066, (3-chloro-4-(4-(2,3-dihydro-[1,4]dioxino[2,3-b]pyridin-8-yl)thiophen-2-yl)phenyl)(4-hydroxypiperidin-1-yl)methanone]
percent remaining after 60 min in mouse liver microsomes [1]: ++ (30.1-60 = ++) | percent remaining after 60 min in human liver microsomes [2]: ++ (30.1-60 = ++) | A: ACACA, effect of compounds on gene expression of HepG2 cells (ACACA): ++ (0.31-0.7509 = ++) | EC50 (SREBP): < 249 nM

O=C(c1ccc(-c2cc(-c3ccnc(C4CCOCC4)c3)cs2)c(Cl)c1)N1CCC(O)CC1 [Compound I-1628752, (3-chloro-4-(4-(2-(tetrahydro-2H-pyran-4-yl)pyridin-4-yl)thiophen-2-yl)phenyl)(4-hydroxypiperidin-1-yl)methanone]
percent remaining after 60 min in mouse liver microsomes [1]: +++ (≥60.1 = +++) | percent remaining after 60 min in human liver microsomes [2]: + (0-30 = +) | A: ACACA, effect of compounds on gene expression of HepG2 cells (ACACA): + (>0.751 = +) | EC50 (SREBP): > 500 nM

O=C(c1ccc(-c2cc(-c3ccnc(CC4(O)CCC4)c3)cs2)c(Cl)c1)N1CCC(O)CC1 [Compound I-1629077, (3-chloro-4-(4-(2-((1-hydroxycyclobutyl)methyl)pyridin-4-yl)thiophen-2-yl)phenyl)(4-hydroxypiperidin-1-yl)methanone]
percent remaining after 60 min in mouse liver microsomes [1]: ++ (30.1-60 = ++) | percent remaining after 60 min in human liver microsomes [2]: + (0-30 = +) | A: ACACA, effect of compounds on gene expression of HepG2 cells (ACACA): ++ (0.31-0.7509 = ++) | EC50 (SREBP): < 249 nM

O=C(c1ccc(-c2cc(-c3ccnc(C4CCCO4)c3)cs2)c(Cl)c1)N1CCC(O)CC1 (stereo not shown) [Compound I-1628777, (3-chloro-4-(4-(2-(tetrahydrofuran-2-yl)pyridin-4-yl)thiophen-2-yl)phenyl)(4-hydroxypiperidin-1-yl)methanone]
percent remaining after 60 min in mouse liver microsomes [1]: +++ (≥60.1 = +++) | percent remaining after 60 min in human liver microsomes [2]: + (0-30 = +) | A: ACACA, effect of compounds on gene expression of HepG2 cells (ACACA): ++ (0.31-0.7509 = ++) | EC50 (SREBP): 250 to 500 nM
